Test results: patent US8143212B2 (Vicuron Pharmaceuticals Inc., priority 2002, dated 2012)
≈ marks a conversion by molar mass, not a printed value. Read-outs that look alike come from different tables or passages of the source.

Tests used:
[1] = tested on: P vulgaris; assay: MIC, microbiological activity (Table 3); assay type: cell-based; settings: L 79 P vulgaris; read-out: MIC
[2] = in vivo
Protocol: Safety was evaluated by the collection and analysis of data on adverse events (AEs), clinical laboratory tests, physical examinations, vital signs, and ECGs.

[3] = tested on: Gram-positive pathogen; assay: Phase II SSTI trial: microbiological response; assay type: in vivo, human; settings: for Success Rate by Pathogen: Microbiologically ITT Population at FU; for eradication/presumed eradication rate, all organisms: FU assessment
Protocol: There were 62 patients randomized into the study; all received at least one dose of study medication. Four study populations were evaluated for safety and efficacy and were defined as follows: The intent-to-treat (ITT) population included all patients who received at least one dose of study drug (all randomized study subjects).
Microbiological outcome, a secondary efficacy variable, was assessed in the subpopulation of patients who had microbiologically documented SSTI (i.e., at least one identified baseline pathogen). A microbiologic response was assessed for each Gram-positive pathogen identified at baseline (i.e., eradication, presumed eradication, persistence, presumed persistence). For patients for whom follow-up cultures were not performed, the microbiologic responses for baseline pathogens were presumed on the basis of the clinical response. Microbiologic response by patient at the EOT and FU visits was graded as success (i.e., all Gram-positive organisms eradicated or presumed eradicated) or failure (i.e., at least one Gram-positive organism persisted or presumed to have persisted, multiple pathogens with partial eradication). At both the EOT and FU visits, colonization and superinfection were assessed. At the FU visit, a patient's bacteriological response could also include recurrence.

[4] = tested on: bacteria; assay: Minimum bactericidal concentration; assay type: cell-based; settings: in plasma
From the text: The amount of dalbavancin administered may be any of the dosages disclosed herein.

[5] = clinical; settings: human, in vivo; for AUC(0-inf): AUC0-inf; for clearance: CL; for Vd: Vss
Protocol: (§1) The peak concentrations (Cmax) were obtained directly from the observed data. The area under the plasma concentration-time curve (AUC) were calculated using the linear trapezoidal rule.
(§2) Clinical Study VER001-13 examined subjects with mild and moderate renal impairment and Clinical Study VER001-1 examined subjects with severe renal impairment and subjects with end-stage renal disease (ESRD). Matched control subjects were enrolled in all studies. […] Subjects with ESRD were dependent on dialysis through the course of the study (3 times weekly).

[6] = tested on: P aeruginosas; assay: MIC, microbiological activity (Table 3); assay type: cell-based; settings: L 4 P aeruginosas ATCC10145; read-out: MIC
[7] = human, in vivo
Protocol: as §1, §2

[8] = tested on: hepatic cytochrome P450 isoenzymes
[9] = tested on: Staph. aureus; assay: ED50 against Staph. aureus murine septicaemias (Table 2); assay type: in vivo; settings: Staphylococcus aureus, MSSA, sc, 10 min
[10] = tested on: E coli; assay: MIC, microbiological activity (Table 3); assay type: cell-based
[11] = in vitro; assay type: cell-based, S. aureus; settings: mouse, serum
From the text: This degree of binding was considered in subsequent pharmacodynamic analyses. The degree of binding in human serum would be estimated to be 96%.

[12] = tested on: Gram-positive isolates, including MRSA; assay type: cell-based; settings: baseline isolates, MITT
[13] = Phase II SSTI trial: safety (adverse events); assay type: in vivo, human
Protocol: Each patient who received at least one dose of study drug (ITT population) was evaluated for drug safety through monitoring of adverse events (AE), including abnormal clinical laboratory test results and vital signs. AE were rated by the investigator as to their severity (mild, moderate, severe, life-threatening), and by the relationship to the study drug (not related, unlikely related, possibly related, or probably related).

[14] = in vivo; settings: Swiss ICR, mouse, plasma, ip
Protocol: Neutropenia in this and all other studies was produced by injections of cyclophosphamide, 150 mg/kg 4 days prior to study, 100 mg/kg 1 day prior to study and 100 mg/kg every 48 h after start of infection until end of study. Neutrophil counts remained less than 100/mm^3 for the duration of study. Doses of 2.5, 5, 10, 20; 40, and 80 mg/kg were studied. Drug was administered by intraperitoneal injection of 0.2 ml volume. Blood was removed from groups of three mice by retroorbital aspiration into heparinized capillary tubes at 0.5, 1, 2, 4, 6, 24, 48, 72, and 96 hours after dosing. […] AUC was calculated by the trapezoidal rule from mean concentrations.

[15] = rat, in vivo
Protocol: Excreta and more than 40 different tissues were collected through 70 days post-administration, and the tissue distribution and pharmacokinetics of drug-derived radioactivity were determined.
Rats (3 per time-point) were euthanized at 12, 24, 48, 72, 96, 120, 144, 168, 336, 840, 1176 and 1680 hours post dose for collection of blood, plasma, and tissues (including carcass). All samples were analyzed by LSC.
As part of the QTD studies, bile samples were collected from bile duct cannulated rats (4 animals) through 384 h (16 days) post-dose.

[16] = human, in vivo; remark: listed apart in the source
[17] = molecular target: human albumin (Homo sapiens, UniProt P02768); settings: pH 7.4
Sequence of human albumin (P02768 25-609): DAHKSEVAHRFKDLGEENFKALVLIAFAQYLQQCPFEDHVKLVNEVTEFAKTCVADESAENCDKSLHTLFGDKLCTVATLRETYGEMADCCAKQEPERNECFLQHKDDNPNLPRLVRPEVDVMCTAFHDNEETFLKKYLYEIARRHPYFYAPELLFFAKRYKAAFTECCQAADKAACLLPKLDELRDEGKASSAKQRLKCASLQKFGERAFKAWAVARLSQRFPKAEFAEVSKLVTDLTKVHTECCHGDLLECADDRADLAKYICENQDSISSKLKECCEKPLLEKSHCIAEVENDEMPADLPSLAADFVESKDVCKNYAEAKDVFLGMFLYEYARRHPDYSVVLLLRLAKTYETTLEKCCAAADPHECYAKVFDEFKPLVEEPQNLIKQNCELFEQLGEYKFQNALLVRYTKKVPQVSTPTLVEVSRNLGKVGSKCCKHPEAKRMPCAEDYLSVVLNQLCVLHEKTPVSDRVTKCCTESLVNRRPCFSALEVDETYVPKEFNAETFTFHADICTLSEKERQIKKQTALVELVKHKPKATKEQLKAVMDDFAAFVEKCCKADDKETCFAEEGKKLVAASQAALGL
Protocol: Integrated heat effects, after correction for heats of dilution, were analyzed by non-linear regression using a simple single-site binding model with the standard Microcal ORIGIN software package. Raw data (μcal/sec) for each injection were integrated to give the total heat effect per addition, then divided by amount of injectant to give kcal/mole of injectant. The same integration was applied for control dilution effects, and this was subtracted from the actual titration data. This provided a differential of the binding curve in which the extent of binding is proportional to the total heat liberated (or absorbed). This was then analyzed by non-linear regression methods in terms of various standard binding models. The simplest model assumes simple non-competitive binding equilibrium, and gives three parameters:

CN[C@H]1C(=O)N[C@@H]2Cc3ccc(cc3)Oc3cc4cc(c3O[C@@H]3O[C@H](C(=O)O)[C@@H](O)[C@H](O)[C@H]3NC(=O)CCCCCCCCC(C)C)Oc3ccc(cc3Cl)[C@@H](O)[C@@H]3NC(=O)[C@H](NC(=O)[C@@H]4NC(=O)[C@@H](NC2=O)c2cc(cc(O)c2Cl)Oc2cc1ccc2O)c1ccc(O)c(c1)-c1c(O[C@H]2O[C@H](CO)[C@@H](O)[C@H](O)[C@@H]2O)cc(O)cc1[C@@H](C(=O)NCCCN(C)C)NC3=O [Dalbavancin]
MIC [1]: > 32 µg/mL | average difference of effect on QTc values ([2]; human): 7 ms | patients with AEs that led to discontinuation of study drug ([2]; human): 3% | SAE considered to be related to study drug [2]: no SAE | S. aureus eradication rate ([3]; FU, single-dose): 50% | S. aureus eradication rate ([3]; FU, two-dose): 90% | Microbiologic Success Rate ([3]; MITT population, EOT, Single-dose (1100 mg)): 5/14 (35.7) % | Microbiologic Success Rate ([3]; MITT population, EOT, Two-dose (1000/500 mg)): 10/13 (76.9) % | Microbiologic Success Rate ([3]; MITT population, FU, Single-dose (1100 mg)): 3/14 (21.4) % | Microbiologic Success Rate ([3]; MITT population, FU, Two-dose (1000/500 mg)): 9/13 (69.2) % | MRSA eradication rate ([3]; MITT population, single-dose): 50% | MRSA eradication rate ([3]; MITT population, two-dose): 80% | Success Rate by Pathogen ([3]; Methicillin-resistant S. aureus, Single-dose (1100 mg)): 3/6 (50%) | Success Rate by Pathogen ([3]; Methicillin-resistant S. aureus, Two-dose (1000/500 mg)): 4/5 (80%) | Microbiologic Success Rate ([3]; Microbiologically evaluable population, EOT, Single-dose (1100 mg)): 5/13 (38.5) % | Microbiologic Success Rate ([3]; Microbiologically evaluable population, EOT, Two-dose (1000/500 mg)): 8/11 (72.7) % | Microbiologic Success Rate ([3]; Microbiologically evaluable population, FU, Single-dose (1100 mg)): 3/11 (27.3) % | Microbiologic Success Rate ([3]; Microbiologically evaluable population, FU, Two-dose (1000/500 mg)): 8/11 (72.7) % | Success Rate by Pathogen ([3]; Total organisms, Two-dose (1000/500 mg)): 14/16 (87.5%)^ | microbiologic success rates ([3]; both visits (EOT and FU), single dose): < 40% | Microbiologic Success Rate ([3]; microbiologically-evaluable population, EOT, single-dose): 38.5% | Microbiologic Success Rate ([3]; microbiologically-evaluable population, EOT, two-dose): 72.7% | eradication/presumed eradication rate, all organisms ([3]; microbiologically-evaluable population, single-dose): 58% | eradication/presumed eradication rate, all organisms ([3]; microbiologically-evaluable population, two-dose): 92% | Microbiologic Success Rate ([3]; microbiologically-evaluable population, FU, single-dose): 27.3% | Microbiologic Success Rate ([3]; microbiologically-evaluable population, FU, two-dose): 72.7% | MBC [4]: ~4 µg/mL (≈ 2.2 µM) | AUC ([5]; 500 mg, AUC): 24400 µg·h/mL | AUC ([5]; 500 mg, AUC0-day7): 6080 µg·h/mL | AUC ([5]; 500 mg, AUC0-day14): 10400 µg·h/mL | AUC(0-inf) ([5]; 500 mg): 24100 µg·h/mL | AUC ([5]; 500 mg, AUC7): 6860 µg·h/mL | AUC ([5]; 500 mg, AUC14): 11000 µg·h/mL | clearance ([5]; 500 mg): 0.37 mL/min | Cmax ([5]; 500 mg): 137 µg/mL | Vd ([5]; 500 mg): 13.2 L | AUC ([5]; 1000 mg, AUC): 24500 µg·h/mL | AUC ([5]; 1000 mg, AUC0-day7): 9710 µg·h/mL | AUC ([5]; 1000 mg, AUC0-day14): 15300 µg·h/mL | AUC(0-inf) ([5]; 1000 mg): 27000 µg·h/mL | AUC ([5]; 1000 mg, AUC7): 13400 µg·h/mL | AUC ([5]; 1000 mg, AUC 14): ~22000 µg·h/mL | AUC ([5]; 1000 mg, AUC14): 17700 µg·h/mL | AUC ([5]; 1000 mg, AUC42): 23100 µg·h/mL | clearance ([5]; 1000 mg): 0.627 mL/min | Cmax ([5]; 1000 mg): 340 µg/mL | Vd ([5]; 1000 mg): 16.5 L | AUC ([5]; 1120 mg, AUC): 25800 µg·h/mL | AUC ([5]; 1120 mg, AUC0-day7): 13600 µg·h/mL | AUC ([5]; 1120 mg, AUC0-day14): 20200 µg·h/mL | AUC(0-inf) ([5]; 1120 mg): 25800 µg·h/mL | AUC ([5]; 1120 mg, AUC7): 13600 µg·h/mL | AUC ([5]; 1120 mg, AUC14): 20200 µg·h/mL | clearance ([5]; 1120 mg): 0.728 mL/min | Cmax ([5]; 1120 mg): 325 µg/mL | Vd ([5]; 1120 mg): 8.49 L | MIC [6]: > 32 µg/mL | tolerability [7]: well tolerated | Cmax ([7]; 1120 mg): 325 µg/mL | metabolism in vitro [8]: not metabolized | substrate, inhibitor, or inducer of hepatic cytochrome P450 isoenzymes [8]: not a substrate, inhibitor, or inducer | ED50 [9]: 0.05 mg/kg | MIC ([10]; G 16440 E coli iperperm): 8 µg/mL (≈ 4.4 µM) | MIC ([10]; L 47 E coli SKF12140, read-out: MIC): > 32 µg/mL | fraction unbound [11]: 0.004 | Dalbavancin MIC ([12]; All S. aureus, Single dose Dalbavancin (1100 mg) group): (0.12) | Dalbavancin MIC ([12]; All S. aureus, Standard of Care Regimens group): (0.016-0.25) | Dalbavancin MIC ([12]; All S. aureus, Two-dose Dalbavancin (1000/500 mg) group): (0.12) | Dalbavancin MIC ([12]; Group B streptococcus, Standard of Care Regimens group): (0.016) | Dalbavancin MIC ([12]; Group B streptococcus, Two-dose Dalbavancin (1000/500 mg) group): (0.016) | Dalbavancin MIC ([12]; Miscellaneous Streptococcus and nontypeable strains, Single dose Dalbavancin (1100 mg) group): (0.016) | Dalbavancin MIC ([12]; Miscellaneous Streptococcus and nontypeable strains, Standard of Care Regimens group): (0.016) | Dalbavancin MIC ([12]; Miscellaneous Streptococcus and nontypeable strains, Two-dose Dalbavancin (1000/500 mg) group): (0.016) | Dalbavancin MIC ([12]; Streptococcus pyogenes, Standard of Care Regimens group): (0.016) | ≧1 AE possibly/probably related to treatment ([13]; Single-dose dalbavancin (N = 20)): 55% | ≧1 AE possibly/probably related to treatment ([13]; Two-dose dalbavancin (N = 21)): 48% | AE leading to discontinuation of study medication ([13]; human, in vivo): 0% | clinically significant hepatotoxicity or nephrotoxicity ([13]; in vivo): no evidence | premature discontinuation of treatment due to an AE ([13]; in vivo): No dalbavancin-treated patient discontinued treatment prematurely | serious adverse events related to study drug treatment ([13]; in vivo): no serious adverse events | half-life [14]: 7.6 to 13.1 h | blood to plasma ratio of drug-derived radioactivity ([15]; male, Sprague-Dawley): < 1 | recovered radioactivity in any single tissue ([15]; male, Sprague-Dawley, 5 days): < 5 % of the dose | administered radioactivity retained in carcass ([15]; male, Sprague-Dawley, 70 days): 2.34% | time to maximum concentration (Cmax) in most tissues [15]: ≤ 24 h | plasma concentration, all patients [16]: greater than 20 mg/l | Calculated percent Binding ([17]; 1 μM): 98.8% | Calculated percent Binding ([17]; 10 μM): 98.8% | Calculated percent Binding ([17]; 100 μM): 98.7% | Calculated percent Binding ([17]; 165 μM): 98.6% | Calculated percent Binding ([17]; 250 μM): 98.5% | Calculated percent Binding ([17]; 500 μM): 98.0%
